Earlier results as cited in patent publication US20080139615A1, “COMBINATION OF A HYPNOTIC AGENT AND R (+)-ALPHA-(2,3-DIMETHOXY-PHENYL)-1-[2-(4-FLUOROPHENYL)ETHYL]-4-PIPERIDINEMETHANOL AND THERAPEUTIC APPLICATION THEREOF” (priority 2005, published 2008).

What was measured:
[1] = test system: slow wave sleep (SWS), arousals; settings: patients with sleep maintenance insomnia
[2] = average dosage between 5 and 10 mg, conventional formulation

SMILES	SWS (slow wave sleep) [1]	acting time [2]	half life (average value) [2]
COc1cccc([C@H](O)C2CCN(CCc3ccc(F)cc3)CC2)c1OC [Compound A, R-(+)-α-(2,3-dimethoxyphenyl)-1-[2-(4-fluorophenyl)ethyl]-4-piperidinemethanol]	increase	–	–
Cc1ccc(-c2nc3ccc(C)cn3c2CC(=O)N(C)C)cc1 [Zolpidem, zolpidem]	–	up to 6 hours	about 2.4 hours
